Data from patent publication US11760762B2, “Thienopyranones and furanopyranones as kinase, bromodomain, and checkpoint inhibitors” (SignalRx Pharmaceuticals, Inc., priority 2017, dated 2023).
Structures can show the parent of a compound that is named as a salt. Where two headings read alike, the source gives them in different places.

Columns and labels:
HepG2 = test: Hepatocellular carcinoma cell viability, AlamarBlue; format: cell-based; settings: Homo sapiens, 24 hours, read-out: Hepatocarcinoma Cell Line IC50 Values HepG2
Method: (§1) Cells were seeded into 96-well plate at 1×10^4 cell per well in complete medium+10% FCS and incubated for 24 hours prior to the addition of compounds at concentrations ranging from 50 μM to 50 nM. Cell viability was quantitated 24 hours after the addition of compounds using AlamarBlue® viable cell detection reagent. IC50 curves were determined using Graphpad Prism software.

Hep3B = test: as above; format: cell-based; settings: Homo sapiens, 24 hours, read-out: Hepatocarcinoma Cell Line IC50 Values Hep3B
Method: as §1

Huh7 = test: as above; format: cell-based; settings: Homo sapiens, Huh-7; 24 hours; read-out: Hepatocarcinoma Cell Line IC50 Values Huh7
Method: as §1

Huh7 2H cell line = test: Huh7 2H cell viability; format: cell-based; settings: for IC50: Homo sapiens, Huh-7, 2 h
Method: as §1
The procedures of example 6 were followed except using the Huh7 2H cell line.

CDK4 = target: T1, CDK4 (Homo sapiens, UniProt P11802); test: Cyclin dependent kinase inhibition (Reaction Biology Corp.); format: biochemical; settings: 10-point curve, grouped by potency
T1 construct: Reaction Biology Corp., Malvern, PA (contract assay service)
T1 sequence (P11802 whole entry): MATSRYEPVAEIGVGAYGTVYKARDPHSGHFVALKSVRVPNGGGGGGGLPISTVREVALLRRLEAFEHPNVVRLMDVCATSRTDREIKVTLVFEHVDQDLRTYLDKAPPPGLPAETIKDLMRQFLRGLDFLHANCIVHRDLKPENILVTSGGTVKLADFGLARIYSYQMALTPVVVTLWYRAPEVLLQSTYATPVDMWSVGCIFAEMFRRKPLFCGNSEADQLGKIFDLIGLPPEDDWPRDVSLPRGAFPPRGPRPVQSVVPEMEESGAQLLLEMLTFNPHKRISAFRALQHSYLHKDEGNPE
T1 sequence (P24385 whole entry partner): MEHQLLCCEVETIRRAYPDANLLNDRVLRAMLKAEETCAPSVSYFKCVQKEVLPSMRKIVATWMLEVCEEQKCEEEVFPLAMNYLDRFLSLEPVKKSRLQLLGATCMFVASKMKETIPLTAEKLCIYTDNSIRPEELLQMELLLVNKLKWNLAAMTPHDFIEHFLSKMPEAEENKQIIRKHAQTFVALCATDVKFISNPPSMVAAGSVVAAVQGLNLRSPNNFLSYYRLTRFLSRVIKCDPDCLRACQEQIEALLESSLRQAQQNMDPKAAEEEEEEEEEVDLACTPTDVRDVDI
Method: (§2) PI3K-alpha, PI3K-beta, PI3K-gamma, and PI3K-delta inhibition activity was determined by Thermo Fisher Scientific-Biosciences Life Sciences Solutions, Madison, WI The bromodomain protein inhibition (binding domain 1 and 2 of BRD4) was determined by Reaction Biology Corp., Malvern, PA The cyclin dependent kinase inhibition on proteins such as CDK2, CDK4, CDK6, and CDK9 was determined by Reaction Biology Corp., Malvern, PA.
(§3) The compounds of the invention were characterized by their ability to inhibit the target proteins using third party vendors offering such services. PI3K-alpha, PI3K-gamma, and PI3K-delta inhibition activity was determined by Thermo Fisher Scientific-Biosciences Life Sciences Solutions, Madison, WI. […] NI=no inhibition detected up to 50 μM or IC50 not reached at 50 μM. ND=not done.

CDK6 = target: T2, CDK6 (Homo sapiens, UniProt Q00534); test: as above; format: biochemical; settings: 10-point curve, grouped by potency
T2 construct: Reaction Biology Corp., Malvern, PA (contract assay service)
T2 sequence (Q00534 whole entry): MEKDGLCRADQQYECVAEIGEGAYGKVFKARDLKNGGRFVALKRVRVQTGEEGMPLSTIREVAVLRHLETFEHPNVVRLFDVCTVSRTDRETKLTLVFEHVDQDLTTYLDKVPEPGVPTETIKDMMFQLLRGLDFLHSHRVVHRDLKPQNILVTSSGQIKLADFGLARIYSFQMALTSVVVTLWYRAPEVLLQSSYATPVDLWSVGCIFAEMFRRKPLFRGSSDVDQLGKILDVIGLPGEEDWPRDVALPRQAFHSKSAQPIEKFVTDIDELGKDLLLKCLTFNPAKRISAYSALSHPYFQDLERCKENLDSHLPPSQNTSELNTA
T2 sequence (P24385 whole entry partner): as the sequence (P24385 whole entry partner) above
Method: as §2, §3

PI3K-gamma = target: T3, PI3K-gamma (Homo sapiens, UniProt P48736); test: PI3K inhibition (Thermo Fisher Scientific); format: biochemical; settings: 10-point curve, grouped by potency; read-out: IC50 P13K γ
T3 construct: Thermo Fisher Scientific-Biosciences Life Sciences Solutions, Madison, WI (contract assay service)
T3 sequence (P48736 whole entry): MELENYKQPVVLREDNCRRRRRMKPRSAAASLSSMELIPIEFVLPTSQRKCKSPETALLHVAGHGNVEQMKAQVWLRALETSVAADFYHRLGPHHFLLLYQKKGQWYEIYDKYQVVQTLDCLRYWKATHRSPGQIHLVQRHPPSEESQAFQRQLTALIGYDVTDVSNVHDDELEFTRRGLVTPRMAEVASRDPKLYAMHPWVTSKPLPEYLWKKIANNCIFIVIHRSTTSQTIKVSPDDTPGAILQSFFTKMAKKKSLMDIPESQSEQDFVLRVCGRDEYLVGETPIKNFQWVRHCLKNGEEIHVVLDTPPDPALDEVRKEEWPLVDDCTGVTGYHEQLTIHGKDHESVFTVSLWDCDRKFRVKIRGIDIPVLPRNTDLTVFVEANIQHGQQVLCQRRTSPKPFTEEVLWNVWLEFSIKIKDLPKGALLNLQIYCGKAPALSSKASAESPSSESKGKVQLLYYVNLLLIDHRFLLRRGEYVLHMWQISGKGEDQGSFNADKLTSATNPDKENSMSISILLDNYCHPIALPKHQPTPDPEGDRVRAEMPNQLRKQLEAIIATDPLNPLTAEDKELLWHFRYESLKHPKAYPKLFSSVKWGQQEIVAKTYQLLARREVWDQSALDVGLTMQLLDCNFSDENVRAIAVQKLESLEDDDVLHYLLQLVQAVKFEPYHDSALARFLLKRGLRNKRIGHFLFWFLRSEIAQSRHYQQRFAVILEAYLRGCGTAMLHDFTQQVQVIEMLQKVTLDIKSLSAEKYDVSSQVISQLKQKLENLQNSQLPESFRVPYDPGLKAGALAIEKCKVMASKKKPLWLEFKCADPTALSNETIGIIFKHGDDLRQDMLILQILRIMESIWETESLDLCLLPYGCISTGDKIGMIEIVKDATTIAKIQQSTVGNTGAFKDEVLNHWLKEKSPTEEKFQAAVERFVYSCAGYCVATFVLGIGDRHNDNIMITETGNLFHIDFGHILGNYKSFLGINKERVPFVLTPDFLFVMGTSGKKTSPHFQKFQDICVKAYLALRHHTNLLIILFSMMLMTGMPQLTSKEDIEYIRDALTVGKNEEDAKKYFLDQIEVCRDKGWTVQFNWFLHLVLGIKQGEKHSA
Method: as §2, §3

PI3K-delta = target: T4, PI3K-delta (Homo sapiens, UniProt O00329); test: PI3K inhibition (Thermo Fisher Scientific); format: biochemical; settings: 10-point curve, grouped by potency; read-out: IC50 P13K δ
T4 construct: Thermo Fisher Scientific-Biosciences Life Sciences Solutions, Madison, WI (contract assay service)
T4 sequence (O00329 whole entry): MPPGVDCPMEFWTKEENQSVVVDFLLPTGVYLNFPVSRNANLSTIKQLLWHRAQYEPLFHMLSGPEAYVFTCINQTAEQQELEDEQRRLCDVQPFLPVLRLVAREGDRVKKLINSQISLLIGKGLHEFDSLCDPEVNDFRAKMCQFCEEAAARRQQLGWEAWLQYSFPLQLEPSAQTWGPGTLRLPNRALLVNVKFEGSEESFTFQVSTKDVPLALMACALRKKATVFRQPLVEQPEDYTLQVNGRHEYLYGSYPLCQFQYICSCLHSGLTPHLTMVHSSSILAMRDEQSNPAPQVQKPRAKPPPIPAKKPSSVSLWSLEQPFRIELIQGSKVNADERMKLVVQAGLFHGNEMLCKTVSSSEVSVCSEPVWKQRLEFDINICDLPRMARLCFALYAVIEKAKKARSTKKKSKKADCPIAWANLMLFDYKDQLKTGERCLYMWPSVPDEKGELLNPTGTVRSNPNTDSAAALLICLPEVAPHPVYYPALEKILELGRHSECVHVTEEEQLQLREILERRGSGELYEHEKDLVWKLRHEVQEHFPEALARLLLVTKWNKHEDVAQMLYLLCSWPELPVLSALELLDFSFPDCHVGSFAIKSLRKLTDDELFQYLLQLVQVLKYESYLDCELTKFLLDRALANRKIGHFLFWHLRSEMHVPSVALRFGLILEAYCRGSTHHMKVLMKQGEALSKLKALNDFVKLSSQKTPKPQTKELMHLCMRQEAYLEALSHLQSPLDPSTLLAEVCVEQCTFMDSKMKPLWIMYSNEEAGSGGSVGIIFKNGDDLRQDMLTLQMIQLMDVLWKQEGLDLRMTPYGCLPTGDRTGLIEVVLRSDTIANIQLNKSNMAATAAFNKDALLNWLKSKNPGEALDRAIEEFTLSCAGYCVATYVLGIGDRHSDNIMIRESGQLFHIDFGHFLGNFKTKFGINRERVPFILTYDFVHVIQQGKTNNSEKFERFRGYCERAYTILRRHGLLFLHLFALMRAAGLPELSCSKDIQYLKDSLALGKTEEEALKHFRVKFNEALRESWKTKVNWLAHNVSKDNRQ
T4 sequence (P27986 whole entry partner): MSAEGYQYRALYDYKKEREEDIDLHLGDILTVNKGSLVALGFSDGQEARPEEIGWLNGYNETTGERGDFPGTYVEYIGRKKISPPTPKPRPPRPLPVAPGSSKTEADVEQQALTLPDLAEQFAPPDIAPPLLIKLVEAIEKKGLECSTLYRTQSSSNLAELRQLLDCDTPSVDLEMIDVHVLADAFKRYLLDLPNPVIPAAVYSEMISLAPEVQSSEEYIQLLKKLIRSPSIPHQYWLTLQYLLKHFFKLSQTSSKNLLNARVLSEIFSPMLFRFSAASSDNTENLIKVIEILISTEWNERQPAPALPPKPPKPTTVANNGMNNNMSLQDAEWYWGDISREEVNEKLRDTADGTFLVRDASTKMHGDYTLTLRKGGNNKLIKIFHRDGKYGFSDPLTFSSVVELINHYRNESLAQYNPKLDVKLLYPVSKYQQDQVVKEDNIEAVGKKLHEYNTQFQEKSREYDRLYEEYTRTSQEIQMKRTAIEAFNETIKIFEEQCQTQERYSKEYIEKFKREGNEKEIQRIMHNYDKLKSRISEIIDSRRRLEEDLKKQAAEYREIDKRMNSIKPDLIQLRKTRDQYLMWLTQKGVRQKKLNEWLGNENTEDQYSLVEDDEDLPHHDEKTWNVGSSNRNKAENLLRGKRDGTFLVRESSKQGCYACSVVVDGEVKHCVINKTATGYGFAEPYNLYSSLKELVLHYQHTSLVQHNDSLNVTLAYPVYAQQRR
Method: as §2, §3

PI3K-alpha = target: T5, PI3K-alpha (Homo sapiens, UniProt P42336); test: PI3K inhibition (Thermo Fisher Scientific); format: biochemical; settings: 10-point curve, grouped by potency; read-out: IC50 P13K α
T5 construct: Thermo Fisher Scientific-Biosciences Life Sciences Solutions, Madison, WI (contract assay service)
T5 sequence (P42336 whole entry): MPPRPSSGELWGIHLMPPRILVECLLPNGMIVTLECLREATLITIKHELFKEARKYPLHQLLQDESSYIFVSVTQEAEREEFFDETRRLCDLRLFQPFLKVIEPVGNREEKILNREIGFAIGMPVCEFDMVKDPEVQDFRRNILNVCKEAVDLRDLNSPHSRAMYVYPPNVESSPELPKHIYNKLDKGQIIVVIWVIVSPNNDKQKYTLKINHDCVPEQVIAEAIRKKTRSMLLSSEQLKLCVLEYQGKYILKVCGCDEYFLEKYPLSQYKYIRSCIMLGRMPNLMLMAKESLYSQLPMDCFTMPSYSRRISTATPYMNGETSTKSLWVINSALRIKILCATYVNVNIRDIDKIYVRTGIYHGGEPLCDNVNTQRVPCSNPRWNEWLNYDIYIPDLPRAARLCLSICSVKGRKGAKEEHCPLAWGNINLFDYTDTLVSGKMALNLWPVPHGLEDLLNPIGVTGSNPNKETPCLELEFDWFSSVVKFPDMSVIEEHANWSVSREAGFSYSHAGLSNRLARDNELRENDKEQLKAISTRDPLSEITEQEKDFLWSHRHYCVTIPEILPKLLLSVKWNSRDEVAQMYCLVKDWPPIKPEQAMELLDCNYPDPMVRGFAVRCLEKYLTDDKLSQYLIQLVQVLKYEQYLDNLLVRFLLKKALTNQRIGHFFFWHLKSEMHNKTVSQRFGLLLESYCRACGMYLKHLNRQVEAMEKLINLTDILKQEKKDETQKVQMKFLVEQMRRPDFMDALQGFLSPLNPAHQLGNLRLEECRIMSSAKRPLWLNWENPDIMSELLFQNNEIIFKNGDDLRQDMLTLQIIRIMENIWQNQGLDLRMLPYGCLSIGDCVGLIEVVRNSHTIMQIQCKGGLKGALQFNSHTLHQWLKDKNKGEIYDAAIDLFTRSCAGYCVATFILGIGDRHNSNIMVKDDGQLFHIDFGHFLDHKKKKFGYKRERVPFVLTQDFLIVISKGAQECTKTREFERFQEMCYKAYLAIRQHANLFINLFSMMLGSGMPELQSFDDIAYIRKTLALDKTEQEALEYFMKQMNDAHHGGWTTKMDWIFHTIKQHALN
T5 sequence (P27986 whole entry partner): as the sequence (P27986 whole entry partner) above

BRD4 binding domain 2 = target: T6, BRD4 binding domain 2 (Homo sapiens, UniProt O60885); test: Bromodomain protein inhibition (Reaction Biology Corp.)
T6 construct: Reaction Biology Corp., Malvern, PA (contract assay service)
Method: as §2
(§4) The compounds of the invention were characterized by their ability to inhibit the target proteins using third party vendors offering such services. PI3K-alpha, PI3K-gamma, and PI3K-delta inhibition activity was determined by Thermo Fisher Scientific-Biosciences Life Sciences Solutions, Madison, WI. […] ND=not done.

BRD4 binding domain 1 = target: T7, BRD4 binding domain 1 (Homo sapiens, UniProt O60885); test: as above
T7 construct: Reaction Biology Corp., Malvern, PA (contract assay service)
Method: as §2, §4

PI3 kinases = settings: C. J. Vlahos et al., J. Biol. Chem. 1994; cited from earlier work
CDK6/Cyclin D1 = CDK6/Cyclin D1 (Homo sapiens, UniProt Q00534); settings: Divakar et al., Leukemia 2016; cited from earlier work
CDK4/Cyclin D1 = CDK4/Cyclin D1 (Homo sapiens, UniProt P11802); settings: Divakar et al., Leukemia 2016; cited from earlier work
Chain of CDK4/Cyclin D1 (P11802 whole entry, species assumed): as the sequence (P11802 whole entry) above
Chain of CDK4/Cyclin D1 (P24385 whole entry partner, species assumed): as the sequence (P24385 whole entry partner) above

Jeko-1 = test: Mantle cell lymphoma cell viability, AlamarBlue; format: cell-based; settings: Homo sapiens, JeKo-1; 48 hours; read-out: Mantle Cell Line IC50 Values Jeko-1
Method: (§5) Mantle cell lymphoma cell lines Granta, Mino and Jeko-1 were seeded at a density of 2500 cells/0.1 mL per well in a 96-well plate. Compounds 1 or Palbociclib were added post-plating at 50 μM-50 nM concentrations for 48 hours followed by addition of AlamarBlue® and incubation of plates at 37° C. in 5% CO2 for 6 hours. Fluorescence signals were read as emission at 590 nm after excitation at 560 nm. IC50 for each cell line was determined using Graphpad Prism software module.

Mino = test: Mantle cell lymphoma cell viability, AlamarBlue; format: cell-based; settings: Homo sapiens, MINO; 48 hours; read-out: Mantle Cell Line IC50 Values Mino
Method: as §5

Granta = test: Mantle cell lymphoma cell viability, AlamarBlue; format: cell-based; settings: 48 hours; read-out: Mantle Cell Line IC50 Values Granta
Method: as §5

[1] = 10-point curve, grouped by potency, read-out: IC50 BRD4-2
[2] = 10-point curve, grouped by potency, read-out: IC50 BRD4-1

Compound	IC50 (CDK4) [nM]	IC50 (CDK6) [nM]	IC50 (PI3K-gamma) [nM]	IC50 (PI3K-delta) [nM]	IC50 (PI3K-alpha) [nM]	IC50 (BRD4 binding domain 2; [1]) [nM]	IC50 (BRD4 binding domain 1; [2]) [nM]	further results
O=c1cc(N2CCOCC2)oc2c(-c3ccc4c(c3)OCCO4)csc12 [Compound 0, reference compound]	–	–	–	–	–	–	–	IC50 (HepG2): 5000 nM; IC50 (Hep3B): 6600 nM; IC50 (Huh7): 14300 nM; IC50 (Huh7 2H cell line): 2970 to 5900 nM
CN(C)C(=O)c1cc2cnc(Nc3ccc(-c4csc5c(=O)cc(N6CCOCC6)oc45)cn3)nc2n1C1CCCC1 [Compound 3, {1-Cyclopentyl-6-[5-(5-morpholino-7-oxo-4-oxa-1-thia-3-indenyl)-2-pyridylamino]-1,5,7-triaza-1H-inden-2-yl}(dimethylamino)formaldehyde]	< 100	< 100	100 to 1000	< 100	100 to 1000	100 to 1000	–	IC50 BRD4-1 (BRD4 binding domain 1; 10-point curve, grouped by potency): * to **
COC(=O)c1cc(-c2csc3c(=O)cc(N4CCOCC4)oc23)ccc1Nc1ncc2cc(C(=O)N(C)C)n(C3CCCC3)c2n1 [Compound 4, Methyl 2-[1-cyclopentyl-2-(dimethylamino)carbonyl-1,5,7-triaza-1H-inden-6-ylamino]-5-(5-morpholino-7-oxo-4-oxa-1-thia-3-indenyl)benzoate]	> 50000	> 50000	1000 to 5000	100 to 1000	100 to 1000	1000 to 5000	100 to 1000	–
Cc1nc2c(F)cc(-c3nc(Nc4ccc(-c5csc6c(=O)cc(N7CCOCC7)oc56)cc4)ncc3F)cc2n1C(C)C [Compound 5, 3-{p-[5-Fluoro-4-(7-fluoro-3-isopropyl-2-methyl-1,3-diaza-3H-inden-5-yl)-2-pyrimidinylamino]phenyl}-5-morpholino-4-oxa-1-thia-7-indenone]	< 100	< 100	> 50000	1000 to 5000	5000 to 50000	> 50000	> 50000	–
COC(=O)c1cc(Nc2ncc3cc(C(=O)N(C)C)n(C4CCCC4)c3n2)ccc1-c1csc2c(=O)cc(N3CCOCC3)oc12 [Compound 7, Methyl 5-[1-cyclopentyl-2-(dimethylamino)carbonyl-1,5,7-triaza-1H-inden-6-ylamino]-2-(5-morpholino-7-oxo-4-oxa-1-thia-3-indenyl)benzoate]	< 100	< 100	1000 to 5000	< 100	100 to 1000	100 to 1000	100 to 1000	–
CN(C)C(=S)c1cc2cnc(Nc3ccc(-c4csc5c(=S)cc(N6CCOCC6)oc45)cc3)nc2n1C1CCCC1 [Compound 12, 7-Cyclopentyl-N,N-dimethyl-2-((4-(5-morpholino-7-thioxo-7H-thieno[3,2-b]pyran-3-yl)phenyl)amino)-7H-pyrrolo[2,3-d]pyrimidine-6-carbothioamide]	100 to 1000	100 to 1000	5000 to 50000	100 to 1000	100 to 1000	5000 to 50000	5000 to 50000	–
CN(C)C(=O)c1cc2cnc(Nc3ccc(-c4csc5c(=O)cc(N6CCN(C(=O)OC(C)(C)C)CC6)oc45)cc3)nc2n1C1CCCC1 [Compound 18]	< 100	< 100	1000 to 5000	100 to 1000	5000 to 50000	1000 to 5000	100 to 1000	–
O=c1cc(N2CCOCC2)oc2c(-c3ccccc3)cccc12 [LY294002, 2-(4-morpholinyl)-8-phenyl-4H-1-benzopyran-4-one]	–	–	–	–	–	–	–	IC50 (PI3 kinases): 1400 nM
CN1CCN(c2ccc(Nc3ncc4cc(C#N)c(=O)n(C5CCCC5)c4n3)cc2)CC1 [ON123300, reference compound]	–	–	–	–	–	–	–	IC50 (CDK6/Cyclin D1): 9.82 nM; IC50 (CDK4/Cyclin D1): 3.87 nM; IC50 (BRD4 binding domain 2; read-out: IC50 BRD4 binding domain 2): > 50000 nM; IC50 (BRD4 binding domain 1; read-out: IC50 BRD4 binding domain 1): 45600 nM
CC(=O)c1c(C)c2cnc(Nc3ccc(N4CCNCC4)cn3)nc2n(C2CCCC2)c1=O [Palbociclib, reference compound]	–	–	–	–	–	–	–	IC50 (Huh7 2H cell line): 9200 nM; times less potent than Compound 1, Huh7 2H (Huh7 2H cell line; ratio of IC50 values): about 18 times; IC50 (Jeko-1): 7430 nM; IC50 (Mino): 47900 nM; IC50 (Granta): 10200 nM

Continued, in another order:

IC50 (CDK4) [nM]	IC50 (CDK6) [nM]	IC50 (PI3K-gamma) [nM]	IC50 (PI3K-delta) [nM]	IC50 (PI3K-alpha) [nM]	IC50 (BRD4 binding domain 2; [1]) [nM]	IC50 (BRD4 binding domain 1; [2]) [nM]	Compound	further results
< 100	< 100	1000 to 5000	< 100	< 100	100 to 1000	100 to 1000	CC(=O)c1c(C)c2cnc(Nc3ccc(-c4csc5c(=O)cc(N6CCOCC6)oc45)cc3)nc2n(C2CCCC2)c1=O [Compound 6, 1-{8-cyclopentyl-5-methyl-2-[p-(5-morpholino-7-oxo-4-oxa-1-thia-3-indenyl)phenylamino]-7-oxo-1,3,8-triaza-8H-naphth-6-yl}-1-ethanone]	–
5000 to 50000	5000 to 50000	100 to 1000	100 to 1000	< 100	100 to 1000	< 100	CN(C)C(=O)c1cc2cnc(Nc3ccc(-c4csc5c(=O)cc(N6CCOCC6)oc45)c(C(=O)O)c3)nc2n1C1CCCC1 [Compound 10, 5-[1-Cyclopentyl-2-(dimethylamino)carbonyl-1,5,7-triaza-1H-inden-6-ylamino]-2-(5-morpholino-7-oxo-4-oxa-1-thia-3-indenyl)benzoic acid]	–
< 100	< 100	5000 to 50000	100 to 1000	100 to 1000	1000 to 5000	1000 to 5000	CN(C)C(=O)c1cc2cnc(Nc3ccc(-c4csc5c(=S)cc(N6CCOCC6)oc45)cc3)nc2n1C1CCCC1 [Compound 11, {1-Cyclopentyl-6-[p-(5-morpholino-7-thioxo-4-oxa-1-thia-3-indenyl)phenylamino]-1,5,7-triaza-1H-inden-2-yl}(dimethylamino)formaldehyde]	–
< 100	< 100	5000 to 50000	5000 to 50000	5000 to 50000	100 to 1000	100 to 1000	CN(C)C(=O)c1cc2cnc(Nc3ccc(-c4csc5c(=O)cc(N6CCNCC6)oc45)cc3)nc2n1C1CCCC1 [compound 2, (1-Cyclopentyl-6-{p-[7-oxo-5-(1-piperazinyl)-4-oxa-1-thia-3-indenyl]phenylamino}-1,5,7-triaza-1H-inden-2-yl)(dimethylamino)formaldehyde hydrochloride]	–
